One data set concerns NIH/3T3 fibroblast cells. Nature of the data set: MTT assay on non-malignant fibroblasts (selectivity). Format: cell-based, murine. The conditions noted are these: Mus musculus, NIH3T3, 72 h, read-out: Growth inhibition (%) ± SEM; for inhibition at 10 µM: NIH/3T3, 10 μM; for inhibition at 30 µM: NIH/3T3, 30 μM. The procedure:
(§1) The in vitro anticancer effects of the presented compounds were assessed using the standard MTT [3-(4,5-dimethylthiazol2-yl)-2,5-diphenyltetrazolium bromide] assay on the following human cancer cell lines: cervical (HeLa and SiHa), breast (MCF-7 and MDA-MB-231) and ovarian cancer (A2780). The selectivity of the tested compounds was determined on murine embryonal fibroblast cells (NIH/3T3). The utilised cell lines were purchased from the European Collection of Cell Cultures (Salisbury, UK). The cells were cultivated in Eagle’s minimal essential medium supplemented with 10% fetal bovine serum, 1% non-essential amino acids and 1% antibiotic-antimycotic complex (penicillin, streptomycin, amphotericin B) at 37 °C in a humidified atmosphere containing 5% CO2. All media and supplements were purchased from Lonza Group Ltd. (Basel, Switzerland). The cancer cells were seeded into 96-well plates (5000 cells/well) and incubated overnight, and the test compounds were applied in two different concentrations (10 µM and 30 µM) and incubated for another 72 h under cell-culturing conditions. […] After 72 h, 20 µL of the 5 mg/mL MTT solution was added to each well, and the plates were incubated for 4 h. The medium was removed, and the formazan crystals produced by the mitochondrial activity were dissolved in dimethyl sulfoxide (DMSO) via shaking at 37 °C for 30 min. The absorbances were measured at 545 nm using a microplate reader (SPECTROStar Nano, BMG Labtech, Offenburg, Germany). The reference agent was cisplatin, which is a widely used cytotoxic agent. The IC50 values were calculated using sigmoid curve fitting. Two independent experiments were performed with five parallel wells for each condition. Calculations were performed using the GraphPad Prism 9 software (GraphPad Software Inc., San Diego, CA, USA).

For the next data set, the system named is HeLa cells. The data set can be described thus: MTT antiproliferative assay, HeLa. As to conditions: Homo sapiens, 72 h, read-out: Growth inhibition (%) ± SEM. Format: cell-based. As to the method: as §1
Another data set has as its system SiHa cells. Nature of the data set: MTT antiproliferative assay, SiHa. Format: cell-based. The conditions noted are these: Homo sapiens, 72 h, read-out: Growth inhibition (%) ± SEM. As to the method:
as §1

Another data set relates to MDA-MB-231 cells. Nature of the data set: MTT antiproliferative assay, MDA-MB-231. Format: cell-based. The conditions noted are these: Homo sapiens, 72 h, read-out: Growth inhibition (%) ± SEM; for inhibition at 10 µM: MDA-MB-231, 10 μM; for inhibition at 30 µM: MDA-MB-231, 30 μM. As to the method: as §1
Another data set concerns MCF-7 cells. The data set can be described thus: MTT antiproliferative assay, MCF-7. Format: cell-based. As to conditions: Homo sapiens, MCF7, 72 h, read-out: Growth inhibition (%) ± SEM; for inhibition at 10 µM: MCF-7, 10 μM; for inhibition at 30 µM: MCF-7, 30 μM. The procedure: as §1
In a further data set the test system is A2780 cells. Nature of the data set: MTT antiproliferative assay, A2780. The conditions noted are these: Homo sapiens, 72 h, read-out: Growth inhibition (%) ± SEM; for inhibition at 10 µM: A2780, 10 μM; for inhibition at 30 µM: A2780, 30 μM. Format: cell-based. As to the method:
as §1

Each structure is given as a SMILES string. Where only a bound is given, the exact number is not on record here.

`CC[C@H](N[C@@H]1C[C@]23CC[C@H]4[C@@](C)(CCC[C@@]4(C)C(=O)OC)[C@@H]2CC[C@@]1(CO)C3)c1ccccc1` [Compound 11, (4R,4aS,6aR,8R,9R,11aR,11bS)-Methyl 9-(hydroxymethyl)-4,11b-dimethyl-8-(((S)-1-phenylpropyl)amino)tetradecahydro-6a,9-methanocyclohepta[a]naphthalene-4-carboxylate] showed a melting point of 88 to 95 °C. For the same compound, in the data set on NIH/3T3 fibroblast cells, the inhibition at 10 µM came out at 22.2 ± 2.22% and the inhibition at 30 µM worked out at 93.6 ± 2.02%. In the data set with HeLa cells, the inhibition at 10 µM was less than 20% and the inhibition at 30 µM was determined as 94.48 ± 0.84%. In the data set with SiHa cells, the inhibition at 10 µM is less than 20% and the inhibition at 30 µM turned out to be 83.7 ± 3.19%. Further, in the data set with MDA-MB-231 cells, the inhibition at 10 µM was less than 20% and the inhibition at 30 µM turned out to be 90.8 ± 1.35%. For the same compound, in the data set on MCF-7 cells, the inhibition at 10 µM worked out at 49.5 ± 3.06% and the inhibition at 30 µM is 96.94 ± 0.57%. Moreover, in the data set on A2780 cells, the inhibition at 10 µM stood at 74.2 ± 2.1% and the inhibition at 30 µM came out at 98.12 ± 0.3%.

On to `CC[C@@H](N[C@@H]1C[C@]23CC[C@H]4[C@@](C)(CCC[C@@]4(C)C(=O)OC)[C@@H]2CC[C@@]1(CO)C3)c1ccccc1` [Compound 12, (4R,4aS,6aR,8R,9R,11aR,11bS)-Methyl 9-(hydroxymethyl)-4,11b-dimethyl-8-(((R)-1-phenylpropyl)amino)tetradecahydro-6a,9-methanocyclohepta[a]naphthalene-4-carboxylate], for which the melting point is 174 to 176 °C. In the data set on NIH/3T3 fibroblast cells, the inhibition at 10 µM stood at 29.2 ± 1.33% and the inhibition at 30 µM was determined as 95.53 ± 0.49%. In the data set with HeLa cells, the inhibition at 10 µM is less than 20% and the inhibition at 30 µM was found to be 90.8 ± 3.71%. Besides, in the data set with SiHa cells, the inhibition at 10 µM was less than 20% and the inhibition at 30 µM amounted to 82.4 ± 2.09%. For the same compound, in the data set with MDA-MB-231 cells, the inhibition at 10 µM was less than 20% and the inhibition at 30 µM came to 91.6 ± 2.36%. Besides, in the data set with MCF-7 cells, the inhibition at 10 µM came out at 48.6 ± 0.5% and the inhibition at 30 µM was 92.3 ± 2.89%. Further, in the data set on A2780 cells, the inhibition at 10 µM turned out to be 64.7 ± 1.95% and the inhibition at 30 µM amounted to 98.32 ± 0.23%.

Take `CC[C@@H](NC[C@@]12CC[C@@H]3[C@@](CC[C@H]4[C@@]3(C)CCC[C@@]4(C)C(=O)OC)(C[C@H]1O)C2)c1ccccc1` [Compound 24, (4R,4aS,6aR,8R,9S,11aR,11bS)-Methyl 8-hydroxy-4,11b-dimethyl-9-((((R)-1-phenylpropyl)amino)methyl)tetradecahydro-6a,9-methanocyclohepta[a]naphthalene-4-carboxylate]: the inhibition at 10 µM in the data set on NIH/3T3 fibroblast cells was 21.8 ± 2.15%; with HeLa cells, less than 20%; in the data set on SiHa cells it was less than 20%; in the data set on MDA-MB-231 cells it was less than 20%; with MCF-7 cells, 34.8 ± 1.99%; in the data set with A2780 cells, less than 20%. In addition, the inhibition at 30 µM in the data set on NIH/3T3 fibroblast cells was 97.69 ± 0.87%; with HeLa cells, 96.56 ± 0.88%; with SiHa cells, 78.1 ± 1.56%; in the data set with MDA-MB-231 cells it was 97.6 ± 1.01%; with MCF-7 cells it was 93.6 ± 0.94%; in the data set on A2780 cells, 99.28 ± 0.52%.

`CC[C@H](NC[C@@]12CC[C@@H]3[C@@](CC[C@H]4[C@@]3(C)CCC[C@@]4(C)C(=O)OC)(C[C@H]1O)C2)c1ccccc1` [Compound 25, (4R,4aS,6aR,8R,9S,11aR,11bS)-Methyl 8-hydroxy-4,11b-dimethyl-9-((((S)-1-phenylpropyl)amino)methyl)tetradecahydro-6a,9-methanocyclohepta[a]naphthalene-4-carboxylate]: the inhibition at 10 µM with NIH/3T3 fibroblast cells was less than 20%; in the data set with HeLa cells, less than 20%; in the data set on SiHa cells, less than 20%; in the data set on MDA-MB-231 cells, less than 20%; in the data set with MCF-7 cells, 40.1 ± 1.44%; in the data set with A2780 cells it was less than 20%. Also, the inhibition at 30 µM in the data set with NIH/3T3 fibroblast cells was 93.7 ± 1.11%; with HeLa cells, 32.2 ± 2.88%; with SiHa cells, less than 20%; in the data set with MDA-MB-231 cells it was 69.3 ± 1.96%; in the data set on MCF-7 cells, 78.8 ± 1.52%; in the data set with A2780 cells, 73.83 ± 0.57%.

`COC(=O)[C@]1(C)CCC[C@@]2(C)[C@@H]3CC[C@@]4(CNCc5cccc6ccccc56)C[C@]3(CC[C@@H]21)C[C@H]4O` [Compound 26, (4R,4aS,6aR,8R,9S,11aR,11bS)-Methyl 8-hydroxy-4,11b-dimethyl-9-(((naphthalen-1-ylmethyl)amino)methyl)tetradecahydro-6a,9-methanocyclohepta[a]naphthalene-4-carboxylate]: the inhibition at 10 µM in the data set on NIH/3T3 fibroblast cells came to 25.7 ± 1.93%; with HeLa cells it was 49.5 ± 1.23%; with SiHa cells, 63.4 ± 0.91%; in the data set with MDA-MB-231 cells it was 87.61 ± 0.59%; with MCF-7 cells, 90.7 ± 1.57%; in the data set on A2780 cells it was 61.4 ± 1.45%. Also, the inhibition at 30 µM was 95.6 ± 0.96% in the data set on NIH/3T3 fibroblast cells; 93.6 ± 1.56% in the data set on HeLa cells; 86.9 ± 1.69% in the data set on SiHa cells; 93.1 ± 1.53% in the data set on MDA-MB-231 cells; 97.49 ± 0.53% in the data set on MCF-7 cells; 98.21 ± 0.43% with A2780 cells.

Consider `COC(=O)[C@]1(C)CCC[C@@]2(C)[C@@H]3CC[C@@]4(CN[C@@H](C)c5cccc6ccccc56)C[C@]3(CC[C@@H]21)C[C@H]4O` [Compound 27, (4R,4aS,6aR,8R,9S,11aR,11bS)-Methyl 8-hydroxy-4,11b-dimethyl-9-((((S)-1-(naphthalen-1-yl)ethyl)amino)methyl)tetradecahydro-6a,9-methanocyclohepta[a]naphthalene-4-carboxylate], for which the inhibition at 10 µM was less than 20% in the data set on NIH/3T3 fibroblast cells; less than 20% in the data set with HeLa cells; less than 20% with SiHa cells; 67.2 ± 1.94% in the data set on MDA-MB-231 cells; 79.6 ± 2.89% in the data set on MCF-7 cells; 59 ± 1.68% in the data set on A2780 cells. The inhibition at 30 µM in the data set with NIH/3T3 fibroblast cells is 94 ± 1.64%; in the data set with HeLa cells it was 96.38 ± 0.83%; with SiHa cells, 86.9 ± 2.27%; in the data set on MDA-MB-231 cells it was 93.69 ± 0.42%; in the data set on MCF-7 cells, 97.63 ± 0.31%; in the data set on A2780 cells, 98.92 ± 0.22%.

`COC(=O)[C@]1(C)CCC[C@@]2(C)[C@@H]3CC[C@@]4(CN[C@H](C)c5cccc6ccccc56)C[C@]3(CC[C@@H]21)C[C@H]4O` [Compound 28, (4R,4aS,6aR,8R,9S,11aR,11bS)-Methyl 8-hydroxy-4,11b-dimethyl-9-((((R)-1-(naphthalen-1-yl)ethyl)amino)methyl)tetradecahydro-6a,9-methanocyclohepta[a]naphthalene-4-carboxylate]: the inhibition at 10 µM in the data set with NIH/3T3 fibroblast cells is less than 20%; in the data set on HeLa cells, 46.8 ± 1.44%; in the data set on SiHa cells, 63.4 ± 2.66%; in the data set on MDA-MB-231 cells, 88 ± 0.54%; in the data set with MCF-7 cells, 90.63 ± 0.54%; with A2780 cells, 60.1 ± 2.24%. For the same compound, the inhibition at 30 µM worked out at 94 ± 1.95% with NIH/3T3 fibroblast cells; 94.66 ± 0.63% in the data set with HeLa cells; 86.1 ± 3.79% in the data set with SiHa cells; 92.9 ± 1.04% in the data set with MDA-MB-231 cells; 97.75 ± 0.39% with MCF-7 cells; 98.53 ± 0.42% with A2780 cells.

On to `COC(=O)[C@]1(C)CCC[C@@]2(C)[C@@H]3CC[C@@]4(CN[C@H](C)c5ccc6ccccc6c5)C[C@]3(CC[C@@H]21)C[C@H]4O` [Compound 29, (4R,4aS,6aR,8R,9S,11aR,11bS)-Methyl 8-hydroxy-4,11b-dimethyl-9-((((R)-1-(naphthalen-2-yl)ethyl)amino)methyl)tetradecahydro-6a,9-methanocyclohepta[a]naphthalene-4-carboxylate], for which the inhibition at 10 µM was less than 20% in the data set on NIH/3T3 fibroblast cells; less than 20% with HeLa cells; less than 20% in the data set on SiHa cells; less than 20% with MDA-MB-231 cells; 32.5 ± 0.92% in the data set on MCF-7 cells; 21.9 ± 0.73% in the data set on A2780 cells. The inhibition at 30 µM was determined as 32 ± 1.3% in the data set on NIH/3T3 fibroblast cells; 92.17 ± 0.38% in the data set on HeLa cells; 79.5 ± 2.33% in the data set on SiHa cells; 95.3 ± 0.97% in the data set on MDA-MB-231 cells; 93.08 ± 0.3% in the data set with MCF-7 cells; 75 ± 1.79% in the data set with A2780 cells.

For the origin of these results see paper PMC10745768, “Stereoselective Synthesis and Antiproliferative Activity of Steviol-Based Diterpene 1,3-Aminoalcohol Regioisomers” (Molecules, 2023).
